Test results reported in article PMC7549094 (Journal of Medicinal Chemistry, 2020).

Columns and labels:
in vitro AMES = assay type: cell-based
[1] = in vivo micronucleus (MNT) study in rat
hr Al2A antag = biological target: T1, hr Al2A antag (Homo sapiens, UniProt P08913); assay: receptor profile (Table S4); assay type: biochemical
T1 sequence (P08913 1-465): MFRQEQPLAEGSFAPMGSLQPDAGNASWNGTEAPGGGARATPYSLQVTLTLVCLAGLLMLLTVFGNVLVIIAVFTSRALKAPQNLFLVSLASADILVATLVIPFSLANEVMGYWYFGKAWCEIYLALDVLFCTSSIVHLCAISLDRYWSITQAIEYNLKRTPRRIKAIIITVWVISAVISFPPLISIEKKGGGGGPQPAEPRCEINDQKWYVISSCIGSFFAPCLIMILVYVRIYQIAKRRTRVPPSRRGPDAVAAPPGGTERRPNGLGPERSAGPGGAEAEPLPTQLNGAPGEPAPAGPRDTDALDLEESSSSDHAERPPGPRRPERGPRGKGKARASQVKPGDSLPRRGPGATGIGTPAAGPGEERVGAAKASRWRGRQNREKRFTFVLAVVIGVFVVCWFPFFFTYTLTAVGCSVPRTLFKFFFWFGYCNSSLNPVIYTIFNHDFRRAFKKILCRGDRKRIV

hr ETa = biological target: T2, hr ETa (Homo sapiens, UniProt P25101); assay: receptor profile (Table S4); assay type: binding
T2 sequence (P25101 21-427): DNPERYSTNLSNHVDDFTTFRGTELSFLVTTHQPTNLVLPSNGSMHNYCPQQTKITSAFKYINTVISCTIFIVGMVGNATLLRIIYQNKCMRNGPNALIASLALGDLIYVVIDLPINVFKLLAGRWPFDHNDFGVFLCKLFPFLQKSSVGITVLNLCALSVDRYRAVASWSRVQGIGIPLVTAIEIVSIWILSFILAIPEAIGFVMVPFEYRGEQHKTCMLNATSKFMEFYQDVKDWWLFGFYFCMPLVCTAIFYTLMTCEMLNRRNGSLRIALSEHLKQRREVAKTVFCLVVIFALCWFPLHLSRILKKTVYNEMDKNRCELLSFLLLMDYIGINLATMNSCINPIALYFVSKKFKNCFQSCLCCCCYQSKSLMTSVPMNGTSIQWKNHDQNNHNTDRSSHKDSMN

hr ERa antag = hr ERa antag (Homo sapiens, UniProt P03372); assay: receptor profile (Table S4); assay type: biochemical
hr PPARg ag = biological target: T3, hr PPARg ag (Homo sapiens, UniProt P37231); assay: receptor profile (Table S4); assay type: biochemical
T3 sequence (P37231 1-505): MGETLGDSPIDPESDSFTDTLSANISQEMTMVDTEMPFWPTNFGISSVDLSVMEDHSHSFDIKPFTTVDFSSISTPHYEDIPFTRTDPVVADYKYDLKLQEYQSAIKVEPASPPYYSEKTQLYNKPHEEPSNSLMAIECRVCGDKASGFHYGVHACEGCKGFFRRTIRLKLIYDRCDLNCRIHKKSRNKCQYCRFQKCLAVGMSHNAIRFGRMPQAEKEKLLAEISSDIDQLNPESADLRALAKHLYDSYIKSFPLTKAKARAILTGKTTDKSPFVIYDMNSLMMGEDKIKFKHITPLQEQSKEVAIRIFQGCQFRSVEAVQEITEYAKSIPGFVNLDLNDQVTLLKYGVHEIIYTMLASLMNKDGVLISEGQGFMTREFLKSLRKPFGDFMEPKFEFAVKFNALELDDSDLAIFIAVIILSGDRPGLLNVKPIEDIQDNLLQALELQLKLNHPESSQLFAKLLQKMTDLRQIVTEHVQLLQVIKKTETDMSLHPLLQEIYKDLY

hr M2 antag = biological target: T4, hr M2 antag (Homo sapiens, UniProt P08172); assay: receptor profile (Table S4); assay type: biochemical
T4 sequence (P08172 1-466): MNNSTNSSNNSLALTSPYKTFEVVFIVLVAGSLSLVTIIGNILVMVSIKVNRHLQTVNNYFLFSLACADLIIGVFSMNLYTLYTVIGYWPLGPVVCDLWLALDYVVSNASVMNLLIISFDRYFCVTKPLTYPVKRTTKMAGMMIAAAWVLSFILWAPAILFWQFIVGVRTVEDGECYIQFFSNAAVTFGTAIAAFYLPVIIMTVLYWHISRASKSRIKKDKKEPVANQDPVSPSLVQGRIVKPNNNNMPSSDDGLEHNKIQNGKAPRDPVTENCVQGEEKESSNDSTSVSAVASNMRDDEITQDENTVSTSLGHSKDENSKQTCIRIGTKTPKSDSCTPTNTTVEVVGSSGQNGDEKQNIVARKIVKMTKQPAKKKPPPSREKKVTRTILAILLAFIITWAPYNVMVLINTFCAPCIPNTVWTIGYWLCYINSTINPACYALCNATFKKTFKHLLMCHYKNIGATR

BSEP [2] = biological target: T5, BSEP (Homo sapiens, UniProt O95342); assay: receptor profile (Table S4), first BSEP line
BSEP [3] = biological target: T5, BSEP; assay: receptor profile (Table S4), second BSEP line; settings: human
hr BSEP = hr BSEP (Homo sapiens, UniProt O95342); assay: receptor profile (Table S4), second BSEP line; settings: hr BSEP, second line
Chain of hr BSEP (O95342 whole entry): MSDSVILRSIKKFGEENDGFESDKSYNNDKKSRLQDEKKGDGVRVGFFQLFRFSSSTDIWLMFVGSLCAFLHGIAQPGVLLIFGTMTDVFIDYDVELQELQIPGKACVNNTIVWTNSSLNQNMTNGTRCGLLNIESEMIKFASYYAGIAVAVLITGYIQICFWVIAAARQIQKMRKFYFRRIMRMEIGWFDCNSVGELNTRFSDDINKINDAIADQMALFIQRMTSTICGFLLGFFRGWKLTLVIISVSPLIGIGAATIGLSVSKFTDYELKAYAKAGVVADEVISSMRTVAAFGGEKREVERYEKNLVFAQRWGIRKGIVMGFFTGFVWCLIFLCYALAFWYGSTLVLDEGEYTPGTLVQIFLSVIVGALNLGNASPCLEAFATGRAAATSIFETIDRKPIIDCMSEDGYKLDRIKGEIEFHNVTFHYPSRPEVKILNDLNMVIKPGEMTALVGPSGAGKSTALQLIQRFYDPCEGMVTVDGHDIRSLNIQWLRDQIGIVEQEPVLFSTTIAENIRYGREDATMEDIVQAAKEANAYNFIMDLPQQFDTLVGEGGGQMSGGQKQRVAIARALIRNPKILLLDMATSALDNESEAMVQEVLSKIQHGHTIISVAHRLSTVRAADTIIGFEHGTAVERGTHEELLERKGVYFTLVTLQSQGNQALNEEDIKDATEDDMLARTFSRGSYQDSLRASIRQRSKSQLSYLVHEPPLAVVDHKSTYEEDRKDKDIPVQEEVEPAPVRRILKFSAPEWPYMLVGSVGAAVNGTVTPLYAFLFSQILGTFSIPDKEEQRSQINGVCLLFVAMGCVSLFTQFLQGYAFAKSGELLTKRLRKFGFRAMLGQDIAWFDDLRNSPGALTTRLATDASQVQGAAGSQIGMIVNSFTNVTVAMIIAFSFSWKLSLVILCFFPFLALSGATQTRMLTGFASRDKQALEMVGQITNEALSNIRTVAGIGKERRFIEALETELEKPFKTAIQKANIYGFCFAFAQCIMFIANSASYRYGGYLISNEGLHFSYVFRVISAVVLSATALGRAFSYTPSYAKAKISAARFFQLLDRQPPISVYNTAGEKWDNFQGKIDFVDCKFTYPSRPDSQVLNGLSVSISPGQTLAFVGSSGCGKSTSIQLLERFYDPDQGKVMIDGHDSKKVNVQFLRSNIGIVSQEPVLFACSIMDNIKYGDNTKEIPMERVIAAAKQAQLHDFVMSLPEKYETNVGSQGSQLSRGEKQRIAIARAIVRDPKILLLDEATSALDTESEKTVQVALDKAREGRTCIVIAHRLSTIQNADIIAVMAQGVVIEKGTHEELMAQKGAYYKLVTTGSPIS

T5 sequence (O95342 whole entry): as above
Chain of hr ERa antag (P03372 whole entry): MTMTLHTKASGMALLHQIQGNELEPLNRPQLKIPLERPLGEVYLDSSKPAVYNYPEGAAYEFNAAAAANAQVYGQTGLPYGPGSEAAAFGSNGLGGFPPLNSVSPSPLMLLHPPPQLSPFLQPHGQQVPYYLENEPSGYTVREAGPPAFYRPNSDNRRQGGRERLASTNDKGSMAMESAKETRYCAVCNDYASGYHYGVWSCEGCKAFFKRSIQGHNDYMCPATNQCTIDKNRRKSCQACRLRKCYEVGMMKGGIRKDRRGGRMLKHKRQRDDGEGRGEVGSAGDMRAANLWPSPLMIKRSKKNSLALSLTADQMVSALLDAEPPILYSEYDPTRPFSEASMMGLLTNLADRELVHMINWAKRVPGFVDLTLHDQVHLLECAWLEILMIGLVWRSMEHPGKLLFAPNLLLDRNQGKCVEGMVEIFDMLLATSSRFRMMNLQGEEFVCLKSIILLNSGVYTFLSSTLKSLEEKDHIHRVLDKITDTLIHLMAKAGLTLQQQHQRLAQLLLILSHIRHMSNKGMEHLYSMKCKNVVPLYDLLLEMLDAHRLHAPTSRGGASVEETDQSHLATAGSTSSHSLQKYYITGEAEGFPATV

Cc1nc(C)c(C(=O)Nc2ccc(F)c(-c3nc4ncc(-c5ncccc5C)cn4n3)c2)o1 [compound 1, N-(4-Fluoro-3-(6-(3-methylpyridin-2-yl)-[1,2,4]triazolo[1,5-a]pyrimidin-2-yl)phenyl)-2,4-dimethyloxazole-5-carboxamide]
AMES, risk of mutagenicity (in vitro AMES): did not indicate a risk | micronucleus (MNT), risk of clastogenicity [1]: did not indicate a risk | EC50/IC50 (hr Al2A antag; hr Al2A antag): > 30 µM | inhibition at 10 µM (hr Al2A antag; read-out: % inh/act @ 10 µM): 20% | inhibition at 30 µM (hr Al2A antag; read-out: % inh/act @ 30 µM): 22% | EC50/IC50 (hr ETa; hr ETa): > 30 µM | inhibition at 10 µM (hr ETa; read-out: % inh/act @ 10 µM): 2% | inhibition at 30 µM (hr ETa; read-out: % inh/act @ 30 µM): 13% | EC50/IC50 (hr ERa antag; hr ERa antag): > 30 µM | inhibition at 10 µM (hr ERa antag; read-out: % inh/act @ 10 µM): -8% | inhibition at 30 µM (hr ERa antag; read-out: % inh/act @ 30 µM): -4% | EC50/IC50 (hr PPARg ag; hr PPARg ag): > 30 µM | inhibition at 10 µM (hr PPARg ag; read-out: % inh/act @ 10 µM): 4% | inhibition at 30 µM (hr PPARg ag; read-out: % inh/act @ 30 µM): 5% | EC50/IC50 (hr M2 antag; hr M2 antag): > 30 µM | inhibition at 10 µM (hr M2 antag; read-out: % inh/act @ 10 µM): 16% | inhibition at 30 µM (hr M2 antag; read-out: % inh/act @ 30 µM): 31% | % inh/act @ 10 µM (r BZD): 7% | % inh/act @ 30 µM (r BZD): 7% | inhibition at 10 µM (BSEP [2]): 28% | inhibition at 30 µM (BSEP [2]): 45% | inhibition at 10 µM (BSEP [3]): 40% | inhibition at 30 µM (BSEP [3]): 56% | EC50/IC50 (hr BSEP): 17 µM
